Key:
Tg2576 mice [1] = assay: Y-maze performance in aged Tg2576 mice; type: in vivo; details: 21 month old Tg2576 female mice, 3 months treatment vs placebo/saline, p<0.01
Aβ [2] = assay: Hippocampal Aβ burden (% area stained) in Tg2576 mice; type: in vivo; details: vs saline-treated, p<0.05
Text: Scale bar, 200 μm. […] In this initial study we used aged animals to 1) circumvent the estrogen issue, since aged mice, like humans show estropause and 2) to examine the effects of LH ablation once the disease is well established.

LH = assay: Serum LH and pituitary LHβ mRNA after leuprolide acetate; type: in vivo, Tg2576 mice
C57/B6 female mice [3] = assay: Y-maze in ovariectomized mice with or without estrogen replacement; type: in vivo; details: OVX mice
C57/B6 female mice [4] = assay: Morris Water Maze in ovariectomized mice (training and probe trial); type: in vivo; details: for length of time taken to locate the invisible platform across days (rescue of OVX-associated cognitive decline): OVX mice, three training days
Description: (Significance indicated by: *=P+S vs E+S; #=P+S vs P+L; $=P+S vs SHAM; %=P+S vs E+L; at p<0.05).
Additionally, to further determine the memory function and training success in the animals we measured the capacity of the animals to retain the information learned using a probe trial. In this regard, at the end of the last day of training we removed the platform and let the animals swim for 1 minute.

Tg2576 mice [5] = details: APP transgenic mice, recent study; cited from earlier work
Aβ [6] = details: APP transgenic mice, recent study; cited from earlier work
AD patients = details: high doses, completed phase II trial; cited from earlier work
[7] = Body weight 3 months post-surgery + replacement + drug treatment
Description: In addition we added a SHAM ovariectomized group that received saline and a placebo pallet (n=10). During the last two weeks of the study all animals have been tested for Y-maze and Morris Water Maze performance.

Row | Compound | cognitive decline (Y-maze % alternations, change from baseline) (Tg2576 mice [1]) | Aβ burden, % area stained in the entire hippocampus (Aβ [2]) | serum LH (LH; Tg2576 mice, vs saline, P<0.02) | LHβ mRNA expression in the pituitary (LH; mice, 6 and 8 week treatment vs saline) | Y-maze performance (C57/B6 female mice [3]; leuprolide acetate 7.5 mg/kg for 3 months vs saline, specific to placebo replaced group (p=0.005)) | length of time taken to locate the invisible platform across days (rescue of OVX-associated cognitive decline) (C57/B6 female mice [4]) | learning rate in Morris Water Maze (C57/B6 female mice [4]; independent of replacement regimen, vs saline, p=0.027) | latency to enter NE quadrant, probe trial (C57/B6 female mice [4]; regardless of replacement regimen, 0.041) | distance swam in NE quadrant, probe trial (C57/B6 female mice [4]; regardless of replacement regimen, p=0.003) | number of platform crossings, probe trial (C57/B6 female mice [4]; regardless of replacement regimen, p=0.004) | latency to enter platform location, probe trial (C57/B6 female mice [4]; regardless of replacement regimen, p=0.005) | Y-maze performance (Tg2576 mice [5]) | amyloid-β load in the hippocampus (Aβ [6]) | cognitive impairment and activities of daily living (AD patients) | Y-maze performance, estrogen-replaced vs placebo replaced (C57/B6 female mice [3]; saline-treated, t=1.841, p=0.07) | Body weight ([7]; OVX + Estrogen, Saline, 3 months post-surgery) | body weight of OVX+estrogen replaced group compared with SHAM ([7]; irrespective of drug treatment)
1 | CCNC(=O)[C@@H]1CCCN1C(=O)[C@H](CCCNC(=N)N)NC(=O)[C@H](CC(C)C)NC(=O)[C@@H](CC(C)C)NC(=O)[C@H](Cc1ccc(O)cc1)NC(=O)[C@H](CO)NC(=O)[C@H](Cc1c[nH]c2ccccc12)NC(=O)[C@H](Cc1c[nH]cn1)NC(=O)[C@@H]1CCC(=O)N1 [leuprolide acetate] | significantly attenuates cognitive decline | significantly lower | significant decline in serum LH | clear decrease in the expression of LHβ mRNA | significantly improved Y-maze performance | as effective as estrogen in rescuing OVX-associated cognition decline | learned at a faster rate | entered that quadrant earlier | swam longer distances | crossed it more times | crossed the invisible platform region more earlier | improves Y-maze performance | decreases amyloid-β load | stabilization in cognitive impairment and activities of daily living |  |  | 
2 | Estrogen |  |  |  |  |  | rescued by estrogen replacement |  |  |  |  |  |  |  |  | strong trend | 23.5 | not different from the SHAM operated group

From US20120070445A1, “BRAIN-DERIVED GONADOTROPINS AND COGNITION” (priority 2006, published 2012)
